Measured values: US20110100079A1, “METHOD FOR IMPARTING STRESS TOLERANCE TO PLANT” (priority 2007, published 2011)

What was measured:
Type in all cases: in vivo
[1] = tested on: tomato; assay: Example 8 temperature stress test (tomato), soil culture; details: leaf, 100 ppm, 2 weeks; for Fresh weight, relative value (untreated plot = 100), Comparison 1: stress-free: tomato soil culture, cultivation temperature 23, EC 1, pF 1.7, two-leaf stage; for Fresh weight, relative value (untreated plot = 100), Test 1 / Fresh weight, relative value (untreated plot = 100), Test 2 / Fresh weight, relative value (untreated plot = 100), Test 3 / Fresh weight, relative value (untreated plot = 100), Test 4: tomato soil culture; for Fresh weight, relative value (untreated plot = 100), Test 1: cultivation temperature 10, EC 1, pF 1.7, two-leaf stage; for Fresh weight, relative value (untreated plot = 100), Test 2: cultivation temperature 16, EC 1, pF 1.7, two-leaf stage; for Fresh weight, relative value (untreated plot = 100), Test 3: cultivation temperature 29, EC 1, pF 1.7, two-leaf stage; for Fresh weight, relative value (untreated plot = 100), Test 4: cultivation temperature 35, EC 1, pF 1.7, two-leaf stage
Method: Other Conditions were as in Example 5. The environmental conditions in a climatic chamber were controlled so as to have an illuminance by a fluorescent light of 5000 Lux, a daily light-dark cycle of a 16-hour light period and an 8-hour dark period, and various temperatures. Tomatoes as prepared above were transplanted in size-3 (9 cm) pots. A treatment solution containing a compound of Table 1 in a specific concentration (the remainder was water) was prepared and sprayed onto the leaves or applied to the underground portions. […] A comparative example was constructed to reflect the temperature stress-free optimum cultivation conditions to investigate the plant energizing ability. […] Moreover, when the products of the present invention and the comparative products were compared, the stress tolerance imparting ability of the products of the present invention was higher in respective temperature stress conditions.

[2] = tested on: “Momotaro” tomato; assay: Example 6 salt stress test (tomato), hydroponic culture; details: 23° C., leaf, 100 ppm, 2 weeks; for Fresh weight, relative value (untreated plot = 100), Test 5 / Fresh weight, relative value (untreated plot = 100), Test 8 / Fresh weight, relative value (untreated plot = 100), Test 6 / Fresh weight, relative value (untreated plot = 100), Test 7: hydroponic culture; for Fresh weight, relative value (untreated plot = 100), Test 5: EC 2.7 mS/cm; for Fresh weight, relative value (untreated plot = 100), Test 5 / Fresh weight, relative value (untreated plot = 100), Test 6 / Fresh weight, relative value (untreated plot = 100), Test 7 / Fresh weight, relative value (untreated plot = 100), Comparison 2: two-leaf stage; for Fresh weight, relative value (untreated plot = 100), Test 8 / Fresh weight, relative value (untreated plot = 100), Test 6: EC 3.9 mS/cm; for Fresh weight, relative value (untreated plot = 100), Test 8: five-leaf stage; for Fresh weight, relative value (untreated plot = 100), Test 7: EC 4.8 mS/cm; for Fresh weight, relative value (untreated plot = 100), Comparison 2: stress-free: hydroponic culture, EC 1.3 mS/cm
Method: (§1) (a) Comparative example conditions (stress-free optimum growth conditions) Cultivation temperature: 23° C., EC: 1.3 mS/cm (Otsuka ½A formulation) (b) Example conditions (salt stress conditions) Cultivation temperature: 23° C., EC: 2.7, 3.9, 4.8 mS/cm (cultivation with Kureha gardening soil) (2) Illuminance: 5000 Lux (fluorescent light), light/dark cycle: 16 hours/8 hours (3) Employed soil: Kureha gardening soil manufactured by Kureha Corporation (fertilizer components: N:P:K=0.4:1.9:0.6 g/kg soil) (4) Employed solution culture medium: Otsuka ½A formulation: a mixed solution of Otsuka House No. 1 (N:P:K=10:8:27) 7.5 g/10 L and Otsuka House No. 2 (N:P:K:Ca=10:0:0:23) 5 g/10 L, total nitrogen: 130 ppm, phosphoric acid: 60 ppm, potassium: 203 ppm) (5) Cultivation period: 2 weeks (6) Plant preparation: A 50-cell tray was filled with Kureha gardening soil manufactured by Kureha Corporation (fertilizer components: N:P:K=0.4:1.9:0.6 g/kg soil), and seeds of a “Momotaro” tomato or tubers of a “Danshaku” potato were sowed, thinly covered with Kureha gardening soil, and sufficiently watered to allow the seeds or the tubers to sprout. When the leaves in the 2-leaf stage or the 5-leaf stage fully unfolded, the soil on the tomato roots or the potato roots was carefully washed away with running water, and a test was performed. (7) Test chemicals: POE (20) sorbitan monolauric acid ester: Reodol TW-L120 (Kao Corporation) POE (20) sorbitan monopalmitic acid ester: Reodol TW-P120 (Kao Corporation) POE (20) sorbitan monostearic acid ester: Reodol TW-S120 (Kao Corporation) POE (20) sorbitan monooleic acid ester: Reodol TW-O120 (Kao Corporation) Sorbitan monooleic acid ester: Emasol 0-10(F) (Kao Corporation) POE (6) sorbitan monooleic acid ester: Reodol TW-O106 (Kao Corporation) Alkyl (number of carbon atoms: 10) polyglucoside: AG-10LK (Kao Corporation) Alkyl (number of carbon atoms: 12 to 14) polyglucoside: AG-124 (Kao Corporation) Sucrose fatty acid ester (number of carbon atoms: C18, HLB: 5): S-570 (Mitsubishi-Kagaku Foods Corporation) Sucrose fatty acid ester (number of carbon atoms: C18, HLB: 9): S-970 (Mitsubishi-Kagaku Foods Corporation) Sucrose fatty acid ester (number of carbon atoms: C18, HLB: 11): S-1170 (Mitsubishi-Kagaku Foods Corporation) Sucrose fatty acid ester (number of carbon atoms: C18, HLB: 15): 5-1570 (Mitsubishi-Kagaku Foods Corporation) Sucrose fatty acid ester (number of carbon atoms: C16, HLB: 15): P-1570 (Mitsubishi-Kagaku Foods Corporation) Sucrose fatty acid ester (number of carbon atoms: C18:1, HLB: 15): O-1570 (Mitsubishi-Kagaku Foods Corporation) (8) Amount of treatment solution applied: 10 ml/specimen for leaf spraying, 250 ml/specimen for hydroponic culture (treatment of underground portion) (9) 50 ml/specimen for soil culture (treatment of underground portion)
The environmental conditions in a climatic chamber were controlled so as to have a temperature of 23° C., an illuminance by a fluorescent light of 5000 Lux, and a daily light-dark cycle of a 16-hour light period and an 8-hour dark period. Tomatoes as prepared above were planted in 250 ml polyethylene bottles each filled with a solution culture medium having a different EC value. Different EC values were achieved by taking a ½ Otsuka A formulation having an EC value of 1.3 as a standard and suitably increasing the fertilizer concentration through proportional counting. A treatment solution containing a compound of Table 1 in a specific concentration (the remainder was water) was prepared and sprayed onto the leaves or applied to the underground portion. In each test plot, 10 specimens were prepared for replication, and the average of the fresh weight of each specimen 2 weeks after the beginning of the test was calculated and expressed as a relative value where “100” indicates a result identical to that of the untreated plot of a given EC condition. […]

[3] = tested on: “Momotaro” tomato; assay: Example 6 salt stress test (tomato), soil culture; details: 23° C., leaf, 100 ppm, 2 weeks; for Fresh weight, relative value (untreated plot = 100), Test 1 / Fresh weight, relative value (untreated plot = 100), Test 4 / Fresh weight, relative value (untreated plot = 100), Test 2 / Fresh weight, relative value (untreated plot = 100), Test 3: soil culture; for Fresh weight, relative value (untreated plot = 100), Test 1: EC 1.3 mS/cm; for Fresh weight, relative value (untreated plot = 100), Test 1 / Fresh weight, relative value (untreated plot = 100), Test 2 / Fresh weight, relative value (untreated plot = 100), Test 3 / Fresh weight, relative value (untreated plot = 100), Comparison 1: pF 1.7, two-leaf stage; for Fresh weight, relative value (untreated plot = 100), Test 4 / Fresh weight, relative value (untreated plot = 100), Test 2: EC 2 mS/cm; for Fresh weight, relative value (untreated plot = 100), Test 4: pF 1.7, five-leaf stage; for Fresh weight, relative value (untreated plot = 100), Test 3: EC 3 mS/cm; for Fresh weight, relative value (untreated plot = 100), Comparison 1: stress-free: soil culture, EC 1 mS/cm
Method: (1) A. soil culture (a) Comparative example conditions (stress-free optimum growth conditions) Cultivation temperature: 23° C., EC: 1.0 mS/cm (cultivation with Kureha gardening soil), pF value: 1.7 (capillaries in a saturated state) (b) Example conditions (salt stress conditions) Cultivation temperature: 23° C., EC: 1.3, 2.0, 3.0 mS/cm (cultivation with Kureha gardening soil), pF value: 1.7 (capillaries in a saturated state)
as §1
The environmental conditions in a climatic chamber were controlled so as to have a temperature of 23° C., an illuminance by a fluorescent light of 5000 Lux, and a daily light-dark cycle of a 16-hour light period and an 8-hour dark period. Tomatoes as prepared above were transplanted in size-3 (9 cm) pots. During the test period, the EC value was controlled by adding a suitable amount of a 10% NaCl solution once a day so as to attain a specific salt stress value. A treatment solution containing a compound of Table 1 in a specific concentration (the remainder was water) was prepared and sprayed onto the leaves or applied to the underground portions. […]

Compound	Fresh weight, relative value (untreated plot = 100), Comparison 1 [1]	Fresh weight, relative value (untreated plot = 100), Test 1 [1]	Fresh weight, relative value (untreated plot = 100), Test 2 [1]	Fresh weight, relative value (untreated plot = 100), Test 3 [1]	Fresh weight, relative value (untreated plot = 100), Test 4 [1]	Fresh weight, relative value (untreated plot = 100), Test 5 [2]	Fresh weight, relative value (untreated plot = 100), Test 8 [2]	Fresh weight, relative value (untreated plot = 100), Test 6 [2]	Fresh weight, relative value (untreated plot = 100), Test 7 [2]	Fresh weight, relative value (untreated plot = 100), Comparison 2 [2]	Fresh weight, relative value (untreated plot = 100), Test 1 [3]	Fresh weight, relative value (untreated plot = 100), Test 4 [3]	Fresh weight, relative value (untreated plot = 100), Test 2 [3]	Fresh weight, relative value (untreated plot = 100), Test 3 [3]	Fresh weight, relative value (untreated plot = 100), Comparison 1 [3]
POE (20) sorbitan monolauric acid ester [Product of present invention 12]	102	124	126	144	132	136	147	160	135	101	131	146	155	133	101
OC[C@H]1O[C@H](OC[C@H]2O[C@H](O[C@]3(CO)O[C@H](CO)[C@@H](O)[C@@H]3O)[C@H](O)[C@@H](O)[C@@H]2O)[C@H](O)[C@@H](O)[C@H]1O [Comparative product 4, Raffinose, reference compound]	102	100	100	101	101	103	102	103	103	102	–	–	–	–	–
Sucrose fatty acid ester (C18, HLB = 15) [Product of present invention 20]	102	114	116	133	122	121	133	138	125	103	120	129	134	119	–
Alkyl (C10) polyglycoside [Product of present invention 15]	102	116	119	136	126	125	138	145	125	101	121	134	142	121	101
C[N+](C)(C)CC(=O)[O-] [Comparative product 3, Glycine betaine, reference compound]	102	100	100	101	101	103	101	103	102	102	103	101	103	103	102
